Measurements published in patent US12252524B2, “GIP/GLP1 co-agonist compounds” (Eli Lilly and Company, priority 2018, dated 2025).
Where two headings read alike, the source gives them in different places. Numbered stars: 1 amine (or outer) side, 2 acyl side, 3 side chain; on linkers, the order of the positions; unused ones are H or OH. Square brackets hold non-standard residues; d marks the D form. Side chains are listed from the residue outwards. Peptide text beside a SMILES is read from it. * marks the point of attachment. C20 diacid = O=C(O)CCCCCCCCCCCCCCCCCCC(=O)*; C18 diacid = O=C(O)CCCCCCCCCCCCCCCCC(=O)*; αMePhe(2-F) = C[C@](N)(Cc1ccccc1F)C(=O)O; γGlu = O=C(O)[C@H](CCC(=O)[*:2])N[*:1]; αMeL = CC(C)C[C@](C)(N)C(=O)O; Orn = NCCC[C@H](N)C(=O)O; AEEA = NCCOCCOCC(=O)O; Aib = CC(C)(N)C(=O)O

Legend:
in vivo = conditions: male, CD-1, mouse, plasma, sc, 200 nmol/kg
[1] = Peptide stability in 50% v/v pig small intestinal fluid with and without protease inhibitor; format: in vitro ADME; conditions: for remaining at 0.25 h / remaining at 0.5 h / remaining at 1 h: read-out: % peptide intact
Experimental: A peptide is incubated at 37° C. in 1% (v/v) rat small intestinal fluid or 50% (v/v) pig small intestinal fluid with and without a peptidase inhibitor. At different time points, samples are taken out, followed by quenching with 1% TFA in 50% ACN/water to stop the enzyme activity. The intact peptide at different time points is analyzed by high-performance liquid chromatography (HPLC) equipped with an ultraviolet (UV) detector or LC-MS/MS and normalized to the amount of peptide before mixing with the enzyme solution.

[2] = Proteolytic stability assay in 90% pig small intestinal fluid (pSIF); format: in vitro ADME; conditions: 90% pSIF, 37° C.
Experimental: Peptides are diluted to a concentration of 0.4 mg/mL in 90% pig small intestinal fluid. After the mixing, 20 μL are immediately removed (time 0 for the time point of pre-incubation). The mixture is then incubated at 37° C. at 150 rpm. […] The sample is centrifuged at 20,000×g for 20 min at 4° C.
The data analysis is performed using MassLynx.

[3] = pH 8, with rSBTI (5 mg/mL), protease inhibitor, rSBTI (5 mg/mL), 15 min
[4] = pH 8, with rSBTI (5 mg/mL), protease inhibitor, rSBTI (5 mg/mL), 30 min
[5] = pH 8, with rSBTI (5 mg/mL), protease inhibitor, rSBTI (5 mg/mL), 60 min

`CC[C@H](C)[C@H](NC(=O)[C@H](CC(C)C)NC(=O)[C@H](Cc1ccc(O)cc1)NC(=O)[C@@H](CCC(=O)O)NC(=O)[C@@H](NC(=O)[C@H](Cc1ccccc1)NC(=O)[C@H](CCC(=O)O)NC(=O)C(C)(C)NC(=O)[C@H](CCC(N)=O)NC(=O)[C@H](C)NC(=O)[C@H](CCCCNC(=O)COCCOCCNC(=O)COCCOCCNC(=O)CC[C@H](NC(=O)CCCCCCCCCCCCCCCCCCC(=O)O)C(=O)O)NC(=O)[C@H](CCC(=O)O)NC(=O)[C@H](CC(=O)O)NC(=O)[C@H](CC(C)C)NC(=O)[C@](C)(CC(C)C)NC(=O)[C@@H](NC(=O)[C@H](CO)NC(=O)[C@H](Cc1ccc(O)cc1)NC(=O)[C@H](CC(=O)O)NC(=O)[C@H](CO)NC(=O)[C@@H](NC(=O)[C@](C)(Cc1ccccc1F)NC(=O)[C@@H](NC(=O)CNC(=O)[C@H](CCC(=O)O)NC(=O)C(C)(C)NC(=O)[C@@H](N)Cc1ccc(O)cc1)[C@@H](C)O)[C@@H](C)O)[C@@H](C)CC)[C@@H](C)CC)C(=O)N[C@@H](CCC(=O)O)C(=O)NCC(=O)NCC(=O)N1CCC[C@H]1C(=O)N[C@@H](CO)C(=O)N[C@@H](CO)C(=O)NCC(=O)N[C@@H](C)C(=O)N1CCC[C@H]1C(=O)N1CCC[C@H]1C(=O)N1CCC[C@H]1C(=O)N[C@@H](CO)C(N)=O` [Example 1] (H-Y[Aib]EGT[αMePhe(2-F)]TSDYSI[αMeL]LDEK([AEEA-AEEA-γGlu-C20 diacid])AQ[Aib]EFI[dE]YLIEGGPSSGAPPPS-NH2) showed a CL/F (in vivo) of 0.123 mL/min/kg, a Tmax (in vivo) of 12 h and a half-life (in vivo) of 17.5 h.
For `CC[C@H](C)[C@H](NC(=O)[C@H](CC(C)C)NC(=O)[C@H](Cc1ccc(O)cc1)NC(=O)[C@@H](CCC(=O)O)NC(=O)[C@@H](NC(=O)[C@H](Cc1ccccc1)NC(=O)[C@H](CCC(=O)O)NC(=O)C(C)(C)NC(=O)[C@H](CCC(N)=O)NC(=O)[C@H](C)NC(=O)[C@H](CCCCNC(=O)COCCOCCNC(=O)COCCOCCNC(=O)CC[C@H](NC(=O)CCCCCCCCCCCCCCCCC(=O)O)C(=O)O)NC(=O)[C@H](CCCN)NC(=O)[C@H](CC(=O)O)NC(=O)[C@H](CC(C)C)NC(=O)[C@](C)(CC(C)C)NC(=O)[C@@H](NC(=O)[C@H](CO)NC(=O)[C@H](Cc1ccc(O)cc1)NC(=O)[C@H](CC(=O)O)NC(=O)[C@H](CO)NC(=O)[C@@H](NC(=O)[C@](C)(Cc1ccccc1F)NC(=O)[C@@H](NC(=O)CNC(=O)[C@H](CCC(=O)O)NC(=O)C(C)(C)NC(=O)[C@@H](N)Cc1ccc(O)cc1)[C@@H](C)O)[C@@H](C)O)[C@@H](C)CC)[C@@H](C)CC)C(=O)N[C@@H](CCC(=O)O)C(=O)NCC(=O)NCC(=O)N1CCC[C@H]1C(=O)N[C@@H](CO)C(=O)N[C@@H](CO)C(=O)NCC(=O)N[C@@H](C)C(=O)N1CCC[C@H]1C(=O)N1CCC[C@H]1C(=O)N1CCC[C@H]1C(=O)N[C@@H](CO)C(N)=O` [Example 2] (H-Y[Aib]EGT[αMePhe(2-F)]TSDYSI[αMeL]LD[Orn]K([AEEA-AEEA-γGlu-C18 diacid])AQ[Aib]EFI[dE]YLIEGGPSSGAPPPS-NH2; N-terminus assumed), the CL/F (in vivo) was 0.216 mL/min/kg, the Tmax (in vivo) was 6 h and the half-life (in vivo) was 7.55 h. For the same compound, the “% peptide intact” value ([1]; no PI, control, 0 min) was 100.00%, the remaining at 0.25 h ([1]; pH 8, no PI, control, 15 min) was 2.42% and the remaining at 0.5 h ([1]; pH 8, no PI, control, 30 min) was 1.9%. It also gave a remaining at 1 h ([1]; pH 8, no PI, control, 60 min) of 3.09%, a remaining at 0.25 h [1, 3] of 103% and a remaining at 0.5 h [1, 4] of 113%. For the same compound, the remaining at 1 h [1, 5] was 87.3%, the “% peptide intact” value ([1]; rSBTCI (0.5 mg/mL), 0 min) was 100.00% and the “% peptide intact” value ([1]; rSBTCI (0.5 mg/mL), 15 min) was 131.71%. For the same compound, the “% peptide intact” value ([1]; rSBTCI (0.5 mg/mL), 30 min) was 126.53%, the “% peptide intact” value ([1]; rSBTCI (0.5 mg/mL), 60 min) was 123.70% and the “% peptide intact” value ([1]; rSBTI (5 mg/mL), 0 min) was 100.00%.
Work on `CC[C@H](C)[C@H](NC(=O)[C@H](CC(C)C)NC(=O)[C@H](Cc1ccc(O)cc1)NC(=O)[C@@H](CCC(=O)O)NC(=O)[C@@H](NC(=O)[C@H](Cc1ccccc1)NC(=O)[C@H](CCC(=O)O)NC(=O)C(C)(C)NC(=O)[C@H](CCC(N)=O)NC(=O)[C@H](C)NC(=O)[C@H](CCCCNC(=O)COCCOCCNC(=O)COCCOCCNC(=O)CC[C@H](NC(=O)CCCCCCCCCCCCCCCCCCC(=O)O)C(=O)O)NC(=O)[C@H](CCCN)NC(=O)[C@H](CC(=O)O)NC(=O)[C@H](CC(C)C)NC(=O)[C@](C)(CC(C)C)NC(=O)[C@@H](NC(=O)[C@H](CO)NC(=O)[C@H](Cc1ccc(O)cc1)NC(=O)[C@H](CC(=O)O)NC(=O)[C@H](CO)NC(=O)[C@@H](NC(=O)[C@](C)(Cc1ccccc1F)NC(=O)[C@@H](NC(=O)CNC(=O)[C@H](CCC(=O)O)NC(=O)C(C)(C)NC(=O)[C@@H](N)Cc1ccc(O)cc1)[C@@H](C)O)[C@@H](C)O)[C@@H](C)CC)[C@@H](C)CC)C(=O)N[C@@H](CCC(=O)O)C(=O)NCC(=O)NCC(=O)N1CCC[C@H]1C(=O)N[C@@H](CO)C(=O)N[C@@H](CO)C(=O)NCC(=O)N[C@@H](C)C(=O)N1CCC[C@H]1C(=O)N1CCC[C@H]1C(=O)N1CCC[C@H]1C(=O)N[C@@H](CO)C(N)=O` [Example 3] yielded a CL/F (in vivo) of 0.105 mL/min/kg, a Tmax (in vivo) of 6 h and a half-life (in vivo) of 15 h.
With `CC[C@H](C)[C@H](NC(=O)[C@H](CC(C)C)NC(=O)[C@](C)(Cc1ccc(O)cc1)NC(=O)[C@@H](CCC(=O)O)NC(=O)[C@@H](NC(=O)[C@H](Cc1ccccc1)NC(=O)[C@H](CCC(=O)O)NC(=O)C(C)(C)NC(=O)[C@H](CCC(N)=O)NC(=O)[C@H](C)NC(=O)[C@H](CCCCNC(=O)COCCOCCNC(=O)COCCOCCNC(=O)CC[C@H](NC(=O)CCCCCCCCCCCCCCCCC(=O)O)C(=O)O)NC(=O)[C@H](CCCN)NC(=O)[C@H](CC(=O)O)NC(=O)[C@H](CC(C)C)NC(=O)[C@](C)(CC(C)C)NC(=O)[C@@H](NC(=O)[C@H](CO)NC(=O)[C@H](Cc1ccncc1)NC(=O)[C@H](CC(=O)O)NC(=O)[C@H](CO)NC(=O)[C@@H](NC(=O)[C@](C)(Cc1ccccc1F)NC(=O)[C@@H](NC(=O)CNC(=O)[C@H](CCC(=O)O)NC(=O)C(C)(C)NC(=O)[C@@H](N)Cc1ccc(O)cc1)[C@@H](C)O)[C@@H](C)O)[C@@H](C)CC)[C@@H](C)CC)C(=O)N[C@@H](CCC(=O)O)C(=O)NCC(=O)NCC(=O)N1CCC[C@H]1C(=O)N[C@@H](CO)C(=O)N[C@@H](CO)C(=O)NCC(=O)N[C@@H](C)C(=O)N1CCC[C@H]1C(=O)N1CCC[C@H]1C(=O)N1CCC[C@H]1C(=O)N[C@@H](CO)C(N)=O` [Example 4] the “% peptide intact” value ([1]; no PI, control, 0 min) was 100.00%, the remaining at 0.25 h ([1]; pH 8, no PI, control, 15 min) was 72.5% and the remaining at 0.5 h ([1]; pH 8, no PI, control, 30 min) was 41.4%. For the same compound, the remaining at 1 h ([1]; pH 8, no PI, control, 60 min) was 19%, the remaining at 0.25 h [1, 3] was 97% and the remaining at 0.5 h [1, 4] was 96.3%. The remaining at 1 h [1, 5] was 88.6%, the “% peptide intact” value ([1]; rSBTI (5 mg/mL), 0 min) was 100.00% and the “percentage of peptide not cleaved using pSIF” value ([2]; 0 min) was 100%. The remaining at 0.5 h, 0.4 mg/mL ([2]; pig, 90% pig small intestinal fluid (pSIF), 30 min, read-out: percentage of peptide not cleaved using pSIF) was 73.4%, the remaining at 0.75 h, 0.4 mg/mL ([2]; pig, 90% pig small intestinal fluid (pSIF), 45 min, read-out: percentage of peptide not cleaved using pSIF) was 56.4% and the remaining at 1 h, 0.4 mg/mL ([2]; pig, 90% pig small intestinal fluid (pSIF), 60 min, read-out: percentage of peptide not cleaved using pSIF) was 60%.
